The source of these data is US5166348A, “Bornyl and isobornyl esters of carboxylic acids of condensed tetrahydroquinoxalines” (Uralsky politekhnichesky institut, priority 1989, dated 1992).

Several values for one entry are separate records, joined by “and”; a condition that tells them apart may be missing. Equal values may be shown once. Entries after “also recorded” stand apart in the source; their conditions may differ. Read-outs that look alike come from different tables or passages of the source.

Series [1] relates to mice. The note with it: mouse, in vivo.
A short description of series [2]: acute toxicity, oral, mongrel albino mice. To be noted: mouse, in vivo. On the procedure:
Acute toxicity of the proposed compounds 1a through 1e was tested in experiments on mongrel albino mice with oral administration of the drug.

Another series has as its system influenza virus B. The format is in vivo, albino mice. To be noted: for % of diseased mice and of died mice / % of diseased mice and died mice / Efficiency, % / Elongation of animal life in test group (compared with control) / Mean Incubation / Protection factor / Elongation of animals life in test group compared with control / Mean incubation period / Factor of reduction of number of diseased mice (protection factor): influenza virus B; for Factor of reduction of number of diseased mice (protection factor): compared with control.

In the next series the test system is viruses. Nature of the series: spectrum of antiviral activity, summary.
In series [3] the test system is influenza virus. The format is in vivo, mice.
The test system of series [4] is influenza virus. The format is in vivo, mice. This is another data set of the same source.
Series [5] concerns mice. The experiment in a line: toxicity for mice. To be noted: compared with remantadine.
The test system of series [6] is influenza virus. The note with it: given intranasally to pregnant mice + influenza virus.
The subject of series [7] is tick-borne encephalitis virus (Absettar strain). The format is in vivo, mongrel albino mice.
Series [8] deals with influenza virus C, C(Ulan-Ude)131/86. The format is in vivo, chick embryos.
For series [9], the system named is RS virus (strain Novoshakhtinsky 3080). Nature of the series: reproduction of RS virus in L-41 tissue culture. The format is cell-based. On the procedure: (§1) Activity of the proposed compound 1a to the agent causing respiratory syncytial infection was tested. […]
Series [10] has as its system influenza virus C, C(Leningrad)412/83. The format is in vivo, chick embryos.
The test system of another series is RS virus. The experiment in a line: RS virus reproduction in the lungs of infected cotton rats. The format is in vivo. The note with it: intranasally. On the procedure:
as §1

In series [11] the test system is influenza virus C, C(Leningrad)393/87. The format is in vivo, chick embryos.
Another series deals with influenza virus C. The experiment in a line: activity against influenza virus C in chick embryos, summary. The format is in vivo. The source says:
The activity of the proposed compound 1a against influenza virus C has been studied.

The test system of series [12] is influenza virus C, C(USA)1233/47. The format is in vivo, chick embryos.
Where [13] appears, read: 0.2 ml of 0.5% solution into the stomach.
[14] abbreviates: 1 mg/mouse, 24 hours and 1 hour before and 24, 48 and 72 hours after infection.

In the series with mice [1], `CCC(N)C12CC3CC(CC(C3)C1)C2` (stereo not shown) [adapromine, reference compound] had a Toxicity for mice of 6 mg/mouse. Further, in series [2], the LD50 – broadly, the dose expected to kill half of the subjects tested – is 45 mg/kg. The “% of diseased mice and of died mice” value in the series with influenza virus B (per os, 1 mg per animal) is 25% and 12% and 20%. Further, in the series on influenza virus B (influenza virus type B), the “Minimum effective dose against influenza viruses, type B” value came out at 1.0 mg/mouse. Moreover, the “Chemotherapeutic index for influenza viruses, type B” value with influenza virus B (influenza virus type B, toxicity vs minimum effective dose) is given as 6.

On to `CC1=C(C(=O)OC2CC3CCC2(C)C3(C)C)C2Nc3ccccc3N(C)C2O1` (stereo not shown) [compound 1a, isobornyl ester of 2,9-dimethyl-3a,4,9,9a-tetrahydrofuro [2,3-b] quinoxaline-3-carboxylic acid], for which the “spectrum of antiviral activity (in words)” value in the series with viruses was “most pronounced effect against the virus of the tick-borne encephalitis, epidemic, influenza viruses A, B and C, including those resistant to remantadine, and also the virus causing respiratory syncytial infection”. In addition, the “protection and growth of nurslings, course of infection (in words)” value with influenza virus [3] (mouse, in vivo) is “protects their nurslings from infection and death; moreover, it promotes their normal growth as estimated by gain in weight; also recorded: almost does not differ from the weight of young mice borne from control mice; also recorded: promotes an asymptomatic course of infection in pregnant mice and formation of immunity in their posterity”. For the same compound, the “Mean weight of suckling mice, g, day 0” value in the series with influenza virus [3] (plus influenza virus, day 0) is listed as 1.5 g. In the series with influenza virus [3] (plus influenza virus, day 3), the “Mean weight of suckling mice, g, day 3” value is 2.6 g. For the same compound, the “Mean weight of suckling mice, g, day 5” value with influenza virus [3] (plus influenza virus, day 5) was determined as 3.4 g. In the series on influenza virus [3] (plus influenza virus, day 7), the “Mean weight of suckling mice, g, day 7” value is reported as 3.4 g. For the same compound, in the series on influenza virus [3] (plus influenza virus, day 9), the “Mean weight of suckling mice, g, day 9” value was 3.6 g. The “% of lethal cases among mice after infection of their mothers, in 6 days” value with influenza virus [4] (given to female mice + virus, 6 days) is listed as 3%. In the series with influenza virus [4] (given to female mice + virus, 7 days), the “% of lethal cases among mice after infection of their mothers, in 7 days” value stood at 10%. For the same compound, the “% of lethal cases among mice after infection of their mothers, in 8 days” value in the series with influenza virus [4] (given to female mice + virus, 8 days) was 10%. For the same compound, the “% of lethal cases among mice after infection of their mothers, in 9 days” value in the series on influenza virus [4] (given to female mice + virus, 9 days) worked out at 10%. The “% of lethal cases among mice after infection of their mothers, in 10 days” value in the series with influenza virus [4] (given to female mice + virus, 10 days) turned out to be 13%. Also, the “protection of sucklings (in words)” value in the series on influenza virus [4] (given to pregnant or nursing mice) was “protects the sucklings from trasnplacental infection with the virus or infection from a diseased mouse”. Besides, the “toxicity lower than that of remantadine, times” value with mice [5] is given as 2.5-3 times. In addition, the “Mortality rate among suckling mice, %, 4 days after infection” value in the series with influenza virus [6] (4 days) was 0%. Besides, the “Mortality rate among suckling mice, %, 7 days after infection” value in the series with influenza virus [6] (7 days) was determined as 7%. In the series on influenza virus [6] (8 days), the “Mortality rate among suckling mice, %, 8 days after infection” value worked out at 23%. In addition, in the series on influenza virus [6] (11 days), the “Mortality rate among suckling mice, %, 11 days after infection” value is 23%. In series [7] (setting [13]), the “Efficiency, %” value is 70%; the “Elongation of animal life in group of treated animals” value came to 1.5 days; the “Mean incubation period” value was determined as 11.4 days. Besides, the “% of diseased mice and mice which died” value in series [7] (0.2 ml of 0.5% solution into the stomach, 4 h before and 24, 48, 72, 96 h after infection) came out at 18.7%. The “Factor of reduction of quantity of diseased mice (protective factor)” value in series [7] (0.2 ml of 0.5% solution into the stomach, vs physiological saline control) was determined as 3.3. Besides, the “activity against the causative agent of tick-borne encephalitis (in words)” value in series [7] (mouse, in vivo) is given as “antiviral activity of the compound against the causative agent of tick-borne encephalitis; also recorded: highly active against the causative agent of tick-borne encephalitis”. In series [7] (test group, control group 62.5%), this compound came in with a mortality rate of 18.7%. The “decrease of mortality rate, times less” value in series [7] (test vs control group) was determined as 3.3 times. Further, the “Titre of virus (lg) in embryo” value in series [8] was 3.6 ± 0.3 lg. Besides, in [8] (vs solvent control), the “Inhibition of virus reproduction (lg)” value turned out to be 1.6 lg. Besides, in the series on mice [1], the Toxicity for mice stood at 16 mg/mouse. Besides, in series [9] (L-41 tissue culture), the “% of test tubes with degenerated culture” value is on record as 17% and the “Intensity of reduction of quantity of test tubes with degenerated cultures” value turned out to be 0.18. Moreover, the “Factor of reduction of quantity of test tubes with degenerated cultures” value in series [9] (L-41 tissue culture, vs 0.9% NaCl solution) turned out to be 5.3. For the same compound, the “effect on reproduction of RS virus (in words)” value in [9] (tissue culture L-41, strain Novoshakhtinsky 3030 as printed in text) was “inhibits reproduction of RS virus”. For the same compound, in the series with influenza virus B (setting [14]), the “% of diseased mice and died mice” value worked out at 20%; the “Efficiency, %” value came out at 73%; the “Elongation of animal life in test group (compared with control)” value came to 2.4 days; the “Mean Incubation” value came out at 11.0. For the same compound, in the series with influenza virus B (setting [14]), the Protection factor is listed as 3.7. Also, in the series with influenza virus B (per os, 1 mg per animal), the “% of diseased mice and of died mice” value is recorded as 20%; the “Efficiency, %” value came to 73%; the “Elongation of animals life in test group compared with control” value came out at 2.4 days; the “Mean incubation period” value turned out to be 11.0 days. The “Factor of reduction of number of diseased mice (protection factor)” value (“Factor of reduction … (protection factor)” for short) with influenza virus B (per os, 1 mg per animal) was determined as 3.7. Also, in the series on influenza virus B (influenza virus type B), the “Minimum effective dose against influenza viruses, type B” value is 0.04 mg/mouse. Further, the “Titre of virus (lg) in embryo” value in series [10] came to 3.5 ± 0.3 lg. Further, the “Inhibition of virus reproduction (lg)” value in series [10] (vs solvent control) was 1.5 lg. Moreover, in the series with RS virus, the “virus reproduction in the lungs (in words)” value was “decreases the virus reproduction in the lungs of the animals”. Moreover, the “mean titre of the virus lower than in control group” value with RS virus (lungs, vs control group) is reported as 1.8-2.0 lg. Besides, the “Titre of virus (lg) in embryo” value in series [11] amounted to 3.2 ± 0.3 lg. Further, in [11] (vs solvent control), the “Inhibition of virus reproduction (lg)” value was 1.3 lg. In addition, the “activity against influenza virus C (in words)” value in the series on influenza virus C is “inhibits reproduction of influenza virus C”. Also, the “Titre of virus (lg) in embryo” value in series [12] is 2.8 ± 0.4 lg. In addition, in series [12] (vs solvent control), the “Inhibition of virus reproduction (lg)” value stood at 1.7 lg.

For `CCN1c2ccccc2NC2C(C(=O)OC3CC4CCC3(C)C4(C)C)=C(C)OC21` (stereo not shown) [compound 1b, isobornyl ester of 2-methyl-9-ethyl-3a,4,9,9a-tetrahydrofuro [2,3-b] quinoxaline-3-carboxylic acid], in the series with influenza virus B (per os, 1 mg per animal), the “% of diseased mice and of died mice” value is given as 27%; the “Efficiency, %” value was determined as 65%; the “Elongation of animals life in test group compared with control” value stood at 2.2 days; the “Mean incubation period” value stood at 10.0 days. Moreover, the “Factor of reduction … (protection factor)” value with influenza virus B (per os, 1 mg per animal) came out at 2.9.

On to `CCN1c2ccccc2NC2C(C(=O)OC3CC4CCC3(C)C4(C)C)=C(C)OC21` (stereo not shown) [compound 1c, bornyl-2-methyl-9-ethyl-3a,4,9,9a-tetrahydrofuro [2,3-b] quinoxaline-3-carboxylate], for which, in the series with influenza virus B (per os, 1 mg per animal), the “% of diseased mice and of died mice” value is recorded as 25%; the “Efficiency, %” value is recorded as 64%; the “Elongation of animals life in test group compared with control” value is given as 2.4 days; the “Mean incubation period” value was determined as 11.0 days. The “Factor of reduction … (protection factor)” value with influenza virus B (per os, 1 mg per animal) was determined as 2.8.

As for `CC(N)C12CC3CC(CC(C3)C1)C2` (stereo not shown) [remantadine, reference compound], the Toxicity for mice with mice [1] was 6 mg/mouse. For the same compound, the LD50 in [2] came out at 640 mg/kg. Moreover, in the series on influenza virus B (setting [14]), the “% of diseased mice and died mice” value is recorded as 20%; the “Efficiency, %” value is 73%; the “Elongation of animal life in test group (compared with control)” value was 2.3 days; the “Mean Incubation” value worked out at 10.9. In addition, in the series with influenza virus B (setting [14]), the Protection factor turned out to be 3.7.

As to “bornyl-3a,5-dimethyl-2-phenyl-3a,4,4a,5,10,10a-hexahydro-1,3,4-thiadiazole[2,3-a] quinoxaline (2,3-d) pyrrole-4-carboxylate [compound 1d]”, in the series with influenza virus B (per os, 1 mg per animal), the “% of diseased mice and of died mice” value is on record as 20%; the “Efficiency, %” value worked out at 72%; the “Elongation of animals life in test group compared with control” value came to 2.5 days; the “Mean incubation period” value came out at 11.0 days. Further, in the series on influenza virus B (per os, 1 mg per animal), the “Factor of reduction … (protection factor)” value was 3.6.

Turning to “isobornyl 3a,5-dimethyl-2-phenyl-3a,4,4a,5,10,10a-hexahydro-1,3,4-thiadiazole [2,3-a] quinoxaline [2,3-d]-pyrrole-4-carboxylate [compound 1e]”, in the series with influenza virus B (per os, 1 mg per animal), the “% of diseased mice and of died mice” value stood at 21%; the “Efficiency, %” value stood at 71%; the “Elongation of animals life in test group compared with control” value worked out at 2.4 days; the “Mean incubation period” value is on record as 10.9 days. For the same compound, the “Factor of reduction … (protection factor)” value with influenza virus B (per os, 1 mg per animal) came to 3.4.
